Results from patent EP4813403A1, “USE OF GLP-1R/GIPR DOUBLE-TARGET AGONIST IN PREPARING ANIMAL DRUG” (Hangzhou Zhongmeihuadong Pharmaceutical Co., Ltd., priority 2023, dated 2025).

Target: T1, human GIPR (Homo sapiens, UniProt P48546)
T1 construct: expressed in transfected cells
T1 sequence (P48546 22-466): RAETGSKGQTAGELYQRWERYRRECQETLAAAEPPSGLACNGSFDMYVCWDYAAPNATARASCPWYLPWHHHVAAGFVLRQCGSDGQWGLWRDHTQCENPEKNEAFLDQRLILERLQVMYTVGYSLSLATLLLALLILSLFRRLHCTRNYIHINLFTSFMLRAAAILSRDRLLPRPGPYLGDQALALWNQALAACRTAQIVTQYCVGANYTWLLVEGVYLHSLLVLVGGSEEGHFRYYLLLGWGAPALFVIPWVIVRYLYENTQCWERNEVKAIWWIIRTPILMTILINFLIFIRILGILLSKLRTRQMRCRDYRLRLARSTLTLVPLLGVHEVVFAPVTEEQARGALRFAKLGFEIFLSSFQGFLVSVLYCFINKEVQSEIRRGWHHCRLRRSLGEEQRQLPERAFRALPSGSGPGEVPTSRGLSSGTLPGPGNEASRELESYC
Test: Agonistic activity on GIPR of different species (LANCE Ultra cAMP assay): human
Format: cell-based
Conditions: ratio of EC50 value of other species to human EC50 value
Procedure: CHO-K1 cells were seeded in a 6-well plate at 0.6×10^6 cells/well and incubated overnight in an incubator at a temperature of 37 °C and a carbon dioxide concentration of 5%. The next day, CHO-K1 cell media were replaced. Then two tubes A and B were prepared for each plasmid. 100 µL Opti-MEM was added to tube A, then 4 µL Lipofectamine™ 3000 was added and mixed uniformly. 100 µL Opti-MEM was firstly added to tube B, then 2 µg of one of the plasmids (human GIPR-pcDNA5 (+) plasmid, dog GIPR-pcDNA5 (+) plasmid, mouse GIPR-pcDNA5 (+) plasmid, rat GIPR-pcDNA5 (+) plasmid, rabbit GIPR-pcDNA5 (+) plasmid, monkey GIPR-pcDNA5 (+) plasmid) was added and mixed uniformly, and 4 µL P3000™ was added to tube B and mixed uniformly (the ratio of plasmid to transfection reagent was 1 µg: 2 µL). […]
18-20 hours after transfection, human GIPR-CHO, dog GIPR-CHO, mouse GIPR-CHO, rat GIPR-CHO, rabbit GIPR-CHO, and monkey GIPR-CHO cells were resuspended in 1×Casein Stimulation Buffer (HBSS, 5 mM HEPES, 0.5 mM IBMX, 0.1% casein, pH7.4), and seeded into a 384-well cell culture plate at 9 µL/well (cell numbers being 1000, 2000, 2000, 2000, 2000, 2000 cells/well, respectively). […] The readings at 665 nm and 620 nm were determined with a 330 nm excitation light on a microplate reader. The 665 nm/620 nm reading ratio was calculated. […]

## CC[C@H](C)[C@H](NC(=O)C(C)(C)NC(=O)[C@H](Cc1ccc(O)cc1)NC(=O)[C@H](CC(=O)O)NC(=O)[C@H](CO)NC(=O)[C@@H](NC(=O)C(C)(Cc1ccccc1)NC(=O)[C@@H](NC(=O)CNC(=O)[C@H](CCC(=O)O)NC(=O)C(C)(C)NC(=O)[C@@H](N)Cc1ccc(O)cc1)[C@@H](C)O)[C@@H](C)O)C(=O)NC(C)(C)C(=O)N[C@@H](CC(C)C)C(=O)N[C@@H](CC(=O)O)C(=O)N[C@@H](CCCCN)C(=O)N[C@@H](CCC(N)=O)C(=O)N[C@@H](C)C(=O)N[C@@H](CCC(N)=O)C(=O)N[C@@H](C)C(=O)N[C@@H](CCC(=O)O)C(=O)N[C@@H](Cc1ccccc1)C(=O)N[C@H](C(=O)N[C@@H](CCCCNC(=O)COCCOCCNC(=O)COCCOCCNC(=O)COCCOCCNC(=O)CC[C@H](NC(=O)CCCCCCCCCCCCCCCCCCCCC(=O)O)C(=O)O)C(=O)N[C@@H](Cc1c[nH]c2ccccc12)C(=O)N[C@@H](CC(C)C)C(=O)N[C@@H](CC(C)C)C(=O)N[C@@H](CCCCN)C(=O)NCC(=O)NCC(=O)N1CCC[C@H]1C(=O)N[C@@H](CO)C(=O)N[C@@H](CO)C(=O)NCC(=O)N[C@@H](C)C(=O)N1CCC[C@H]1C(=O)N1CCC[C@H]1C(=O)N1CCC[C@H]1C(=O)N[C@@H](CO)C(=O)N[C@@H](CCCCN)C(N)=O)C(C)C (stereo partly shown) [Compound P016]
  GIPR EC50 ratio: 1.00
